Key:
[1] = molecular target: T1, Sigma1-HA-His6 protein associations in MDA-MB-468 cells (Mus musculus, UniProt O55242); test: Ni-NTA co-purification of Sigma1-HA-His6 associated proteins; assay type: cell-based; conditions: 10 μM, 12 hours
T1 construct: expressed in transfected cells; host or cells: MDA-MB-468 breast adenocarcinoma cells
Text: FIG. 44, comprising FIGS. 44A-44D, illustrates the finding that p97/VCP is a Sigma1 associated protein. A novel assay was developed to evaluate Sigma1 ligand modulation of Sigma1 functions involving protein-protein interactions. FIG. 44A is an image of an immunoblot confirming expression of p97/VCP and Sigma1-HA-His6 in detergent soluble cell extracts added to Ni-NTA resin (input). FIG. 44B is an image of an immunoblot relating to eluate from a Ni-NTA affinity purified fraction. Co-isolation/co-purification of p97/VCP was accomplished with Sigma1-HA-His6, which was isolated/purified by Ni-NTA. […] FIG. 44C is an image of an immunoblot confirming expression of p97/VCP and Sigma1-HA-His6 in detergent-soluble cell extracts from MDA-MB-468 breast adenocarcinoma cells treated for 12 hours with 10 μM IPAG (Sigma1 putative antagonist); the extracts were added to Ni-NTA resin (input). FIG. 44D is an image of an immunoblot illustrating eluate from a Ni-NTA affinity purified fraction. Co-isolation/co-purification of p97/VCP was accomplished with Sigma1-HA-His6, which was isolated/purified by Ni-NTA. […] Molecular mass is presented in kilodaltons (kDa).
FIG. 45, comprising FIGS. 45A-45B, illustrates the finding that ubiquitylated proteins are bound to Sigma1. A novel assay was developed to evaluate Sigma1 ligand modulation of Sigma functions involving association with ubiquitylated proteins. […]

[2] = test system: MDA-MB-468 cells; test: SubG1 population by flow cytometry; assay type: cell-based, human; conditions: 10 μM, 48 h
Description: FIG. 29 illustrates the time-course of a Sigma1 antagonist inducing apoptotic cell death of breast adenocarcinoma cells. Treatment with Sigma1 antagonist, IPAG, induces apoptotic cell death of MDA-MB-468 cells, as indicated by the percentage of subG1 phase cells. […] The far left panel represents cells treated or 24 hours with DMSO (vehicle control).
FIG. 37, comprising FIGS. 37A-37D, illustrates that inhibition of autophagy accelerates and/or potentiates Sigma1 antagonist induced apoptosis. FIG. 37A is a graph illustrating the time-course of Sigma antagonist-induced cell death as measured by flow cytometry. MDA-MB-468 cells were treated with DMSO (control), 10 μM IPAG (antagonist), or 10 μM PRE084 (agonist), fixed and stained with propidium iodide for DNA content analysis. The subG1 population was quantified and used as a measure of cell death. Data are from 4 independent determinations. FIG. 37B is an image of a Western blot of caspase 3 (Asp175) cleavage. IPAG induced apoptotic cell death occurred at the 48 hour treatment time point. FIG. 37C is a graph illustrating DA-MB-468 cells treated for 24 hours with a combination of IPAG (10 μM) and autophagy inhibitor 3-methyladenine (3-MA, 5 mM). Cell death was measured by trypan blue exclusion. […] For FIGS. 37A-37C, statistical significance was determined by two-way ANOVA followed by Bonferroni post-test, ***P<0.001.

[3] = test system: MDA-MB-468 cells; test: Alamar blue assay of bortezomib potentiation; assay type: cell-based, human; conditions: 10 μM IPAG with 0.01 μM bortezomib, 20 hours
Description: In vitro cell proliferation and cell death were quantified by Alamar blue reduction. To evaluate potentiation of proteasome inhibitor (bortezomib)-induced cell death by IPAG, MDA-MB-468 cells were treated for 20 hours with a 10 μM IPAG or 0.01 μM bortezomib alone or both drugs combined. Cell death was confirmed by trypan blue exclusion assay (data not shown). Data are representative of an experiment performed in triplicate.

[4] = test system: HER2/3 in SkBr-3 cells; test: HER2 and HER3 level immunoblots; assay type: cell-based, human; conditions: 10 μM for 1-to-24 hours; 1, 3, 10, 20 μM for 12 hours
Text: FIG. 67, comprising FIGS. 67A-67F, illustrates the finding that Sigma1 ligands may be used to modulate (in this case, decrease) the levels of growth factor receptors such as HER2 and HER3 in breast cancer cells, in the absence of detectable cell death. […] Short exposure to IPAG or lower dosage induces ubiquitin-mediated autophagosomal degradation of HER2/3. Prolonged IPAG treatment or higher dosage caused translational arrest. […] FIG. 67A is a set of immunoblots of HER2 following treatment with IPAG. Detergent soluble whole-cell lysates were solved by denaturing SDS-PAGE. (i) 1-to-24 hour (h) treatment with 10 μM IPAG or 11 μM thapsigargin (TG). (ii) Following 12 hour treatment with 1, 3, 10, 20 μM IPAG. FIG. 67B is a set of immunoblots of HER3 following treatment with IPAG. Detergent soluble whole-cell lysates were solved by denaturing SDS-PAGE. (i) 1-to-24 hour (h) treatment with 10 μM IPAG or 1 μM thapsigargin (TG). (ii) Following 12 hour treatment with 1, 3, 10, 20 μM IPAG. FIG. 67C is a set of immunoblots of detergent soluble whole-cell lysates solved by denaturing SDS-PAGE. […] (iii) Quantification of bands in (i). […] (ii) Quantification of HER3 band in DMSO (vehicle control) treated conditions. (iii) Quantification of HER3 band in IPAG treated conditions.

T1 sequence (O55242 whole entry): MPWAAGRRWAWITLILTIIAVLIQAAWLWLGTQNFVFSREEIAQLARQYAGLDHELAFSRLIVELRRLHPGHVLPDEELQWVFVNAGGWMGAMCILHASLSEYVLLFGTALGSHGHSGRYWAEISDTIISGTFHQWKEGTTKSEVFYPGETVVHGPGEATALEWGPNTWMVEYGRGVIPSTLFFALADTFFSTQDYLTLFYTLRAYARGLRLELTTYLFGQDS

Q: How did the “Sigma1-associated p97/VCP in Ni-NTA eluate” value [1] turn out when `N=C(Nc1ccc(I)cc1)NC1C2CC3CC(C2)CC1C3` (centres unmarked) [IPAG, 1-(4-iodophenyl)-3-(2-adamantyl)guanidine] was run?
A: Its value is “Lower levels of Sigma1-associated p97/VCP”.

Q: What about the “Sigma1-associated ubiquitylated proteins in Ni-NTA eluate” value [1] of the same molecule?
A: The value was “Increased levels of Sigma1-associated ubiquitylated proteins”.

Q: And the “subG1 (dead, apoptotic) cells” value [2]?
A: Its value is 31.7%.

Q: What about the “potentiation of bortezomib-induced cell death” value [3] of the same molecule?
A: The value was “potentiates bortezomib-induced adenocarcinoma cell death”.

Q: What about the “levels of HER2/3” value [4] of the same molecule?
A: Its value is “time and dose-dependently causes decreased levels of HER2/3”.

Source: patent publication US9388126B2, “Sigma receptor ligands and methods of modulating cellular protein homeostasis using same” (Drexel University, priority 2012, dated 2016)
